Key:
Assay in all cases: relative viability (nuclei count vs DMSO), 5 days (fraction); higher = more cells survive
[1] = compound: C1CC(C1)(C(=O)O)C(=O)O.[NH2-].[NH2-].[Pt+2] [Carboplatin] + CC(=O)c1c(C)c2cnc(Nc3ccc(N4CCNCC4)cn3)nc2n(C2CCCC2)c1=O [Palbociclib] (partner 0.5 µM)
Summary of the method: (§1)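 Lung cancer cell lines in 1536-well plates were dosed by pin tool the day after seeding, either with one drug alone or with a fixed anchor-drug dose plus five library-drug doses (not always all listed) in √10 steps. After 5 days, cells were fixed and their nuclei stained in one step (final 0.05% Triton X-100, 1% formaldehyde, 1 ug/ml Hoechst), then counted on 4× images. Relative viability is the nuclei count in treated wells divided by that in vehicle wells. Values are medians of duplicate plates.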

Carboplatin + Pictilisib = compound: C1CC(C1)(C(=O)O)C(=O)O.[NH2-].[NH2-].[Pt+2] [Carboplatin] + CS(=O)(=O)N1CCN(Cc2cc3nc(-c4cccc5[nH]ncc45)nc(N4CCOCC4)c3s2)CC1 [Pictilisib] (partner 1 µM)
Summary of the method: as §1

GSK126 + Lapatinib = compound: CC[C@H](C)N1C=C(C2=C(C=C(C=C21)C3=CN=C(C=C3)N4CCNCC4)C(=O)NCC5=C(C=C(NC5=O)C)C)C [GSK126] + CS(=O)(=O)CCNCc1ccc(-c2ccc3ncnc(Nc4ccc(OCc5cccc(F)c5)c(Cl)c4)c3c2)o1 [Lapatinib] (partner 2 µM)
Summary of the method: as §1

GSK126 + Olaparib = compound: CC[C@H](C)N1C=C(C2=C(C=C(C=C21)C3=CN=C(C=C3)N4CCNCC4)C(=O)NCC5=C(C=C(NC5=O)C)C)C [GSK126] + O=C(c1cc(Cc2n[nH]c(=O)c3ccccc23)ccc1F)N1CCN(C(=O)C2CC2)CC1 [Olaparib] (partner 8 µM)
Summary of the method: as §1

LCLC-97TM1
relative viability ([1]; first compound 0.08 µM): 0.206
relative viability ([1]; first compound 0.253 µM): 0.211
relative viability ([1]; first compound 0.8 µM): 0.257
relative viability ([1]; first compound 2.53 µM): 0.211
relative viability ([1]; first compound 8 µM): 0.206
relative viability (Carboplatin + Pictilisib; first compound 0.08 µM): 0.209
relative viability (Carboplatin + Pictilisib; first compound 0.8 µM): 0.233
relative viability (Carboplatin + Pictilisib; first compound 2.53 µM): 0.194
relative viability (Carboplatin + Pictilisib; first compound 8 µM): 0.18
relative viability (GSK126 + Lapatinib; first compound 0.08 µM): 1.22
relative viability (GSK126 + Lapatinib; first compound 0.8 µM): 1.11
relative viability (GSK126 + Lapatinib; first compound 2.53 µM): 1.66
relative viability (GSK126 + Lapatinib; first compound 8 µM): 0.841
relative viability (GSK126 + Olaparib; first compound 0.08 µM): 0.494
relative viability (GSK126 + Olaparib; first compound 0.253 µM): 0.596
relative viability (GSK126 + Olaparib; first compound 0.8 µM): 0.413
relative viability (GSK126 + Olaparib; first compound 2.53 µM): 0.507
relative viability (GSK126 + Olaparib; first compound 8 µM): 0.445

LK-2
relative viability ([1]; first compound 0.08 µM): 0.619
relative viability ([1]; first compound 0.253 µM): 0.824
relative viability ([1]; first compound 0.8 µM): 0.796
relative viability ([1]; first compound 2.53 µM): 0.789
relative viability ([1]; first compound 8 µM): 0.658
relative viability (Carboplatin + Pictilisib; first compound 0.08 µM): 0.707
relative viability (Carboplatin + Pictilisib; first compound 0.253 µM): 0.643
relative viability (Carboplatin + Pictilisib; first compound 0.8 µM): 0.462
relative viability (Carboplatin + Pictilisib; first compound 2.53 µM): 0.401
relative viability (Carboplatin + Pictilisib; first compound 8 µM): 0.613
relative viability (GSK126 + Lapatinib; first compound 0.08 µM): 0.947
relative viability (GSK126 + Lapatinib; first compound 0.253 µM): 0.952
relative viability (GSK126 + Lapatinib; first compound 0.8 µM): 0.876
relative viability (GSK126 + Lapatinib; first compound 2.53 µM): 0.916
relative viability (GSK126 + Lapatinib; first compound 8 µM): 0.673
relative viability (GSK126 + Olaparib; first compound 0.08 µM): 0.904
relative viability (GSK126 + Olaparib; first compound 0.253 µM): 0.71
relative viability (GSK126 + Olaparib; first compound 0.8 µM): 0.727
relative viability (GSK126 + Olaparib; first compound 2.53 µM): 0.859
relative viability (GSK126 + Olaparib; first compound 8 µM): 0.689

CAL-12T
relative viability ([1]; first compound 0.08 µM): 0.402
relative viability ([1]; first compound 0.253 µM): 0.514
relative viability ([1]; first compound 0.8 µM): 0.506
relative viability ([1]; first compound 2.53 µM): 0.483
relative viability ([1]; first compound 8 µM): 0.406
relative viability (Carboplatin + Pictilisib; first compound 0.08 µM): 0.484
relative viability (Carboplatin + Pictilisib; first compound 0.253 µM): 0.398
relative viability (Carboplatin + Pictilisib; first compound 0.8 µM): 0.345
relative viability (Carboplatin + Pictilisib; first compound 2.53 µM): 0.376
relative viability (Carboplatin + Pictilisib; first compound 8 µM): 0.486
relative viability (GSK126 + Lapatinib; first compound 0.08 µM): 0.63
relative viability (GSK126 + Lapatinib; first compound 0.253 µM): 0.674
relative viability (GSK126 + Lapatinib; first compound 0.8 µM): 0.615
relative viability (GSK126 + Lapatinib; first compound 2.53 µM): 0.809
relative viability (GSK126 + Lapatinib; first compound 8 µM): 0.644
relative viability (GSK126 + Olaparib; first compound 0.08 µM): 0.809
relative viability (GSK126 + Olaparib; first compound 0.253 µM): 0.713
relative viability (GSK126 + Olaparib; first compound 0.8 µM): 0.758
relative viability (GSK126 + Olaparib; first compound 2.53 µM): 0.829
relative viability (GSK126 + Olaparib; first compound 8 µM): 0.643

NCI-H322M
relative viability ([1]; first compound 0.08 µM): 0.496
relative viability ([1]; first compound 0.253 µM): 0.476
relative viability ([1]; first compound 0.8 µM): 0.472
relative viability ([1]; first compound 2.53 µM): 0.45
relative viability ([1]; first compound 8 µM): 0.507
relative viability (Carboplatin + Pictilisib; first compound 0.08 µM): 0.567
relative viability (Carboplatin + Pictilisib; first compound 0.253 µM): 0.465
relative viability (Carboplatin + Pictilisib; first compound 0.8 µM): 0.507
relative viability (Carboplatin + Pictilisib; first compound 2.53 µM): 0.542
relative viability (Carboplatin + Pictilisib; first compound 8 µM): 0.521
relative viability (GSK126 + Lapatinib; first compound 0.08 µM): 0.616
relative viability (GSK126 + Lapatinib; first compound 0.253 µM): 0.638
relative viability (GSK126 + Lapatinib; first compound 0.8 µM): 0.604
relative viability (GSK126 + Lapatinib; first compound 2.53 µM): 0.654
relative viability (GSK126 + Lapatinib; first compound 8 µM): 0.66
relative viability (GSK126 + Olaparib; first compound 0.08 µM): 0.818
relative viability (GSK126 + Olaparib; first compound 0.253 µM): 0.807
relative viability (GSK126 + Olaparib; first compound 0.8 µM): 0.806
relative viability (GSK126 + Olaparib; first compound 2.53 µM): 0.829
relative viability (GSK126 + Olaparib; first compound 8 µM): 0.78

NCI-H2126
relative viability ([1]; first compound 0.08 µM): 0.333
relative viability ([1]; first compound 0.253 µM): 0.354
relative viability ([1]; first compound 0.8 µM): 0.336
relative viability ([1]; first compound 2.53 µM): 0.363
relative viability ([1]; first compound 8 µM): 0.353
relative viability (Carboplatin + Pictilisib; first compound 0.08 µM): 0.47
relative viability (Carboplatin + Pictilisib; first compound 0.253 µM): 0.516
relative viability (Carboplatin + Pictilisib; first compound 0.8 µM): 0.518
relative viability (Carboplatin + Pictilisib; first compound 2.53 µM): 0.511
relative viability (Carboplatin + Pictilisib; first compound 8 µM): 0.452
relative viability (GSK126 + Lapatinib; first compound 0.08 µM): 0.758
relative viability (GSK126 + Lapatinib; first compound 0.253 µM): 0.792
relative viability (GSK126 + Lapatinib; first compound 0.8 µM): 0.726
relative viability (GSK126 + Lapatinib; first compound 2.53 µM): 0.819
relative viability (GSK126 + Lapatinib; first compound 8 µM): 0.782
relative viability (GSK126 + Olaparib; first compound 0.08 µM): 0.963
relative viability (GSK126 + Olaparib; first compound 0.253 µM): 0.957
relative viability (GSK126 + Olaparib; first compound 0.8 µM): 0.884
relative viability (GSK126 + Olaparib; first compound 2.53 µM): 0.916
relative viability (GSK126 + Olaparib; first compound 8 µM): 0.915

LU99A
relative viability ([1]; first compound 0.08 µM): 0.468
relative viability ([1]; first compound 0.253 µM): 0.392
relative viability ([1]; first compound 0.8 µM): 0.39
relative viability ([1]; first compound 2.53 µM): 0.424
relative viability ([1]; first compound 8 µM): 0.314
relative viability (Carboplatin + Pictilisib; first compound 0.08 µM): 0.3
relative viability (Carboplatin + Pictilisib; first compound 0.253 µM): 0.379
relative viability (Carboplatin + Pictilisib; first compound 0.8 µM): 0.323
relative viability (Carboplatin + Pictilisib; first compound 2.53 µM): 0.328
relative viability (Carboplatin + Pictilisib; first compound 8 µM): 0.307
relative viability (GSK126 + Lapatinib; first compound 0.08 µM): 1.07
relative viability (GSK126 + Lapatinib; first compound 0.253 µM): 1
relative viability (GSK126 + Lapatinib; first compound 0.8 µM): 0.913
relative viability (GSK126 + Lapatinib; first compound 2.53 µM): 1
relative viability (GSK126 + Lapatinib; first compound 8 µM): 0.99
relative viability (GSK126 + Olaparib; first compound 0.08 µM): 0.245
relative viability (GSK126 + Olaparib; first compound 0.253 µM): 0.258
relative viability (GSK126 + Olaparib; first compound 0.8 µM): 0.266
relative viability (GSK126 + Olaparib; first compound 2.53 µM): 0.243
relative viability (GSK126 + Olaparib; first compound 8 µM): 0.232

NCI-H1666
relative viability ([1]; first compound 0.08 µM): 0.687
relative viability ([1]; first compound 0.253 µM): 0.685
relative viability ([1]; first compound 0.8 µM): 0.549
relative viability ([1]; first compound 2.53 µM): 0.602
relative viability ([1]; first compound 8 µM): 0.6
relative viability (Carboplatin + Pictilisib; first compound 0.08 µM): 0.527
relative viability (Carboplatin + Pictilisib; first compound 0.253 µM): 0.561
relative viability (Carboplatin + Pictilisib; first compound 0.8 µM): 0.404
relative viability (Carboplatin + Pictilisib; first compound 2.53 µM): 0.403
relative viability (Carboplatin + Pictilisib; first compound 8 µM): 0.389
relative viability (GSK126 + Lapatinib; first compound 0.08 µM): 0.635
relative viability (GSK126 + Lapatinib; first compound 0.253 µM): 0.608
relative viability (GSK126 + Lapatinib; first compound 0.8 µM): 0.724
relative viability (GSK126 + Lapatinib; first compound 2.53 µM): 0.704
relative viability (GSK126 + Lapatinib; first compound 8 µM): 0.695
relative viability (GSK126 + Olaparib; first compound 0.08 µM): 0.745
relative viability (GSK126 + Olaparib; first compound 0.253 µM): 0.723
relative viability (GSK126 + Olaparib; first compound 0.8 µM): 0.742
relative viability (GSK126 + Olaparib; first compound 2.53 µM): 0.729
relative viability (GSK126 + Olaparib; first compound 8 µM): 0.76

NCI-H520
relative viability ([1]; first compound 0.08 µM): 0.26
relative viability ([1]; first compound 0.253 µM): 0.2
relative viability ([1]; first compound 0.8 µM): 0.201
relative viability ([1]; first compound 2.53 µM): 0.223
relative viability ([1]; first compound 8 µM): 0.228
relative viability (Carboplatin + Pictilisib; first compound 0.08 µM): 0.357
relative viability (Carboplatin + Pictilisib; first compound 0.253 µM): 0.227
relative viability (Carboplatin + Pictilisib; first compound 0.8 µM): 0.27
relative viability (Carboplatin + Pictilisib; first compound 2.53 µM): 0.297
relative viability (Carboplatin + Pictilisib; first compound 8 µM): 0.258
relative viability (GSK126 + Lapatinib; first compound 0.08 µM): 1.09
relative viability (GSK126 + Lapatinib; first compound 0.253 µM): 0.713
relative viability (GSK126 + Lapatinib; first compound 0.8 µM): 0.722
relative viability (GSK126 + Lapatinib; first compound 2.53 µM): 0.898
relative viability (GSK126 + Lapatinib; first compound 8 µM): 0.922
relative viability (GSK126 + Olaparib; first compound 0.08 µM): 0.401
relative viability (GSK126 + Olaparib; first compound 0.253 µM): 0.347
relative viability (GSK126 + Olaparib; first compound 0.8 µM): 0.311
relative viability (GSK126 + Olaparib; first compound 2.53 µM): 0.462
relative viability (GSK126 + Olaparib; first compound 8 µM): 0.37

Source: the supplement of paper PMC10307832
